This is an account of results in ChEMBL document CHEMBL1201862, “PubChem BioAssay data set” (2004).

Holding throughout (test): NCI-60 cell line screen, 48 h
Test [1] has as its system UACC-257.
The subject of test [2] is HCT-15.
In test [3] the test system is SK-MEL-2.
Test [4] concerns SK-OV-3.
In test [5] the test system is HCC 2998.
Test [6] has as its system U-251.
The subject of test [7] is CAKI-1.
Test [8] relates to A498.
The subject of test [9] is PC-3.
In test [10] the test system is NCI-H522.
Test [11] deals with SF-295.
In test [12] the test system is HCT-116.
Test [13] has as its system SNB-75.
The subject of test [14] is MDA-MB-231.
Test [15] has as its system MOLT-4.
The test system of test [16] is SF-539.
The subject of test [17] is SW-620.
Test [18] deals with NCI-H460.
In test [19] the test system is IGROV-1.
The subject of test [20] is RPMI-8226.

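Grown in 96-well plates, cells were treated for 48 hours with each compound at five concentrations. Insufficient inhibition: endpoint recorded as highest concentration tested. GI50 is the concentration that inhibits growth by half.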 Activity calls are given as the source filed them. No stated cut-off is given here; in the data, active = GI50 up to about 1.1 µM and inactive = higher.

In the case of `COc1ccc(N2C(=O)/C(=C\c3ccccc3)SC2c2cc(OC)c(OC)c(OC)c2)cc1` (stereo not drawn), the GI50 in test [1] was > 100 µM (inactive); in [2] it was > 100 µM; in test [3] it was 30.4 µM (inactive); in test [4], 48.9 µM (inactive); in test [5], > 100 µM (inactive); in test [6], 43.9 µM (inactive). Besides, the GI50 in test [7] is 46.8 µM (inactive); in [8], 73.8 µM (inactive); in [9] it was 39.2 µM (inactive); in test [10], 14.2 µM (inactive); in test [11], > 100 µM (inactive); in test [12], 32.1 µM (inactive). Moreover, the GI50 in [13] was 8.05 µM (inactive); in [14], 88.5 µM (inactive); in test [15] it was 65.6 µM (inactive).

For the compound `O=c1[nH]c2ccsc2c(=O)n1COCc1ccccc1`, the GI50 in [1] was > 100 µM (inactive); in test [2], > 100 µM; in test [16], > 100 µM (inactive); in [3] it was > 100 µM (inactive); in [17], > 100 µM (inactive); in test [5], > 100 µM (inactive). For the same compound, the GI50 in [6], in test [18], in test [7], in test [8], in test [9] and in test [19] was > 100 µM (inactive) in each case. Moreover, the GI50 in test [20], in [10], in [11], in [12], in [13] and in [14] was > 100 µM (inactive) in each case. Further, the GI50 in [15] was > 100 µM (inactive).

As to `O=C(NCCCCCCNCc1cccc2ccccc12)Nc1cccc2ccccc12`, the GI50 was > 100 µM (inactive) in test [1]; > 100 µM in test [2]; > 100 µM (inactive) in test [16]; > 100 µM (inactive) in [3]; > 100 µM (inactive) in test [17]; 85.3 µM (inactive) in test [5]. The GI50 in [6], in [18], in test [7], in [8], in test [9] and in [19] was > 100 µM (inactive) throughout. Besides, the GI50 in [20], in [10], in test [11], in test [12], in test [13] and in test [14] was > 100 µM (inactive) throughout. Further, the GI50 in test [15] is > 100 µM (inactive).

Turning to `CS(=O)(=O)N1CC(CCl)c2ccc(O)cc21` (stereo not drawn), the GI50 in [1] was 2.44 µM (inactive); in test [2], 3.15 µM; in test [16], 2.04 µM (inactive); in [3], 2.94 µM (inactive); in test [17], 2.6 µM (inactive); in test [5], 1.95 µM (inactive). The GI50 was 2.74 µM (inactive) in test [6]; 2.9 µM (inactive) in test [18]; 2.42 µM (inactive) in test [7]; 1.83 µM (inactive) in test [8]; 2.17 µM (inactive) in test [9]; 2.07 µM (inactive) in test [19]. The GI50 in [20] was 2.03 µM (inactive); in [10], 1.47 µM (inactive); in test [11] it was 2.95 µM (inactive); in [12] it was 2.71 µM (inactive); in test [13] it was 2.71 µM (inactive); in test [14] it was 2.2 µM (inactive). For the same compound, the GI50 in test [15] was 2.09 µM (inactive).

As to `Cc1ccc(C2=Nn3c(nc4sc(-c5ccccc5)cc4c3=O)SC2)cc1`, the GI50 in test [1] was > 100 µM (inactive); in test [2], > 100 µM; in [16] it was > 100 µM (inactive); in test [4], > 100 µM (inactive); in test [17], > 100 µM (inactive); in [5], > 100 µM (inactive). Besides, the GI50 in [6], in test [18], in test [7], in test [8], in test [9] and in test [19] was > 100 µM (inactive) throughout. The GI50 in [20], in test [10], in test [11], in test [12], in test [13] and in test [14] was > 100 µM (inactive) in each case. Besides, the GI50 in test [15] was > 100 µM (inactive).

As to `O=C(N/N=C\c1cccc(O)c1)c1ccncc1`, the GI50 in test [1] is > 100 µM (inactive); in [2], > 100 µM; in test [3], > 100 µM (inactive); in test [17] it was > 100 µM (inactive); in test [5], > 100 µM (inactive); in test [6], > 100 µM (inactive). The GI50 in test [18], in test [7], in test [8], in [9], in test [19] and in test [10] was > 100 µM (inactive) in each case. In addition, the GI50 in test [11], in test [12], in test [13], in [14] and in test [15] was > 100 µM (inactive) each time.

With `CC1=CC(=O)/C(=C/NC(=S)c2ccncc2)C(=O)O1`, the GI50 is > 100 µM (inactive) in test [1]; > 100 µM in [2]; > 100 µM (inactive) in [16]; > 100 µM (inactive) in [3]; > 100 µM (inactive) in test [4]; > 100 µM (inactive) in test [17]. The GI50 in [5], in test [6], in test [18], in test [7], in [8] and in [9] was > 100 µM (inactive) in each case. Besides, the GI50 in test [19] is 38.7 µM (inactive); in [10], > 100 µM (inactive); in test [11] it was > 100 µM (inactive); in [12] it was > 100 µM (inactive); in [13] it was 61.9 µM (inactive); in test [14], > 100 µM (inactive). In addition, the GI50 in [15] was > 100 µM (inactive).

Turning to `c1csc(C(NC2=NCCO2)C2CC2)c1` (stereo not drawn), the GI50 is > 100 µM in test [2]; > 100 µM (inactive) in test [16]; > 100 µM (inactive) in test [3]; > 100 µM (inactive) in [4]; > 100 µM (inactive) in [17]; > 100 µM (inactive) in [5]. In addition, the GI50 in test [6], in test [18], in test [7], in test [8], in test [9] and in test [19] was > 100 µM (inactive) each time. Also, the GI50 in [20], in [10], in test [11], in test [12], in [13] and in test [14] was > 100 µM (inactive) throughout. In addition, the GI50 in test [15] is > 100 µM (inactive).

For `CN(/N=C/c1ccc(OCc2cccc(COc3ccc(C=O)cc3)n2)cc1)c1cnn(-c2ccc(Cl)cc2Cl)c(=O)c1Cl`, the GI50 in test [1] is > 100 µM (inactive); in test [2], > 100 µM; in test [16], 12.5 µM (inactive); in test [3] it was 33 µM (inactive); in [17], > 100 µM (inactive); in [5], > 100 µM (inactive). For the same compound, the GI50 in test [6] is 26.9 µM (inactive); in test [18] it was > 100 µM (inactive); in test [7], > 100 µM (inactive); in test [8] it was 48.5 µM (inactive); in test [9], > 100 µM (inactive); in test [19], 62.5 µM (inactive). Besides, the GI50 in test [20] is 53.1 µM (inactive); in test [10], > 100 µM (inactive); in test [11], 20.2 µM (inactive); in test [12] it was > 100 µM (inactive); in [13], 11.4 µM (inactive); in test [14], 20.7 µM (inactive). Further, the GI50 in test [15] was > 100 µM (inactive).

Regarding `Nc1nc(N)c2c(Cl)c(CNc3ccc(C(=O)NC(CC(=O)O)C(=O)O)cc3)ccc2n1` (stereo not drawn), the GI50 in test [2] was < 0.01 µM; in test [16], < 0.01 µM (active); in test [3], > 100 µM (inactive); in [4], < 0.01 µM (active); in test [17], < 0.01 µM (active); in [5] it was > 100 µM (inactive). The GI50 in [6] was < 0.01 µM (active); in test [18], < 0.01 µM (active); in [7], < 0.01 µM (active); in test [8], < 0.01 µM (active); in test [9], 9.31 µM (inactive); in [19], < 0.01 µM (active). Besides, the GI50 in test [20] was < 0.01 µM (active); in test [10], < 0.01 µM (active); in test [11], < 0.01 µM (active); in [12] it was 10.7 µM (inactive); in test [13] it was 8.87 µM (inactive); in test [14], > 100 µM (inactive). Besides, in test [15], the GI50 is < 0.01 µM (active).

Take `N[C@@H]1c2c(Br)sc(Br)c2[C@H](O)[C@@H]1O`: the GI50 is > 100 µM (inactive) in test [1]; > 100 µM in test [2]; > 100 µM (inactive) in [16]; > 100 µM (inactive) in test [3]; > 100 µM (inactive) in test [4]; > 100 µM (inactive) in [17]. Also, the GI50 in [5], in [6], in [18], in test [7], in test [8] and in [9] was > 100 µM (inactive) in each case. In addition, the GI50 in [19], in test [10], in [11], in [12], in [13] and in [14] was > 100 µM (inactive) throughout. In addition, the GI50 in test [15] is > 100 µM (inactive).
